The values below come from PubChem BioAssay (NCI).

Structures are written as SMILES. Where “and” joins values, the source holds several entries; their conditions need not be identical. Identical values can stand only once.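 Each compound was tested at five concentrations against cells in 96-well plates for 48 hours. Abbreviation: GI50, concentration required for 50% inhibition of growth. At the TGI there is no net growth.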

Among the test systems are TK-10 renal; UO-31 renal; SK-MEL-5 melanoma; MDA-MB-435; MDA-MB-231 breast; OVCAR-3 ovarian; K-562 leukemia; SK-OV-3 ovarian; HCT-15 colon; SR leukemia.
What all share (assay): NCI anticancer screen, dose series, 48 h

In the case of `CC1=C[C@H]2c3c(c(O)c(O)c4oc5cc(O)cc(O)c5c(=O)c34)[C@H](c3cc(O)c(O)c4oc5cc(O)cc(O)c5c(=O)c34)[C@H]2C(C)(C)C1`, the GI50 is 2.12 µM and 3.06 µM in the test with TK-10 renal; 1.38 µM and 1.55 µM in the test on UO-31 renal; 1.53 µM and 1.43 µM in the test with SK-MEL-5 melanoma; 0.962 µM and 1.29 µM in the test on MDA-MB-435; 1.46 µM and 1.83 µM with MDA-MB-231 breast; 1.7 µM and 2 µM with OVCAR-3 ovarian. Also, the GI50 in the test on K-562 leukemia is 0.477 µM and 0.536 µM; in the test on SK-OV-3 ovarian it was 2.05 µM and 2.27 µM; in the test with HCT-15 colon, 2.75 µM and 1.62 µM. For the same compound, the TGI was 10.5 µM and 14.8 µM with TK-10 renal; 3.28 µM and 8.22 µM in the test on UO-31 renal; 2.89 µM and 2.84 µM in the test on SK-MEL-5 melanoma; 2.67 µM and 3.12 µM in the test with MDA-MB-435; 4.01 µM and 5.62 µM in the test on MDA-MB-231 breast; 4.02 µM and 7.54 µM with OVCAR-3 ovarian. In addition, the TGI in the test with K-562 leukemia is 10.3 µM and > 100 µM; with SK-OV-3 ovarian, 5.13 µM and 8.28 µM; in the test on HCT-15 colon, 16.4 µM and 14 µM.
Take `C#CCOCn1cnc2ncnc(Cl)c21`: the TGI in the test with SR leukemia, with TK-10 renal, in the test on UO-31 renal, in the test with SK-MEL-5 melanoma, with OVCAR-3 ovarian and in the test on K-562 leukemia was greater than 100 µM in each case. Also, the TGI with SK-OV-3 ovarian is greater than 100 µM.
Turning to `COc1ccc(C(=O)Nc2ncc(Cc3ccc(F)cc3)s2)cc1`, the GI50 is 0.0336 µM with SR leukemia; 4.31 µM with TK-10 renal; 0.908 µM with UO-31 renal; 0.0422 µM in the test with SK-MEL-5 melanoma; 0.2 µM in the test on MDA-MB-231 breast; 0.0346 µM in the test with OVCAR-3 ovarian. Besides, the GI50 in the test with K-562 leukemia was 0.0377 µM; with SK-OV-3 ovarian it was 0.277 µM; in the test on HCT-15 colon, 0.0429 µM. The TGI with SR leukemia was greater than 100 µM; with TK-10 renal, 98.3 µM; with UO-31 renal, greater than 100 µM; in the test with SK-MEL-5 melanoma it was 2.26 µM; in the test on MDA-MB-231 breast, 76.6 µM; in the test on OVCAR-3 ovarian it was 1.32 µM. Further, the TGI in the test on K-562 leukemia, in the test on SK-OV-3 ovarian and in the test with HCT-15 colon was greater than 100 µM in each case.
Turning to `CSc1nc(Cl)c(Br)c(Nc2c[nH]c(=O)[nH]c2=O)n1`, the TGI with TK-10 renal came out at 40 µM; with UO-31 renal, 37.5 µM; in the test on SK-MEL-5 melanoma, 42.6 µM; in the test on MDA-MB-435 it was 83.7 µM; with MDA-MB-231 breast it was 30.1 µM; with OVCAR-3 ovarian it was 40.7 µM. Also, the TGI with K-562 leukemia was greater than 100 µM; in the test on SK-OV-3 ovarian, 42.7 µM; in the test with HCT-15 colon, 27.6 µM.
With `CC(C)C(/C=C/c1ccccc1)=N\NC(=O)N/N=C(/C=C/c1ccccc1)C(C)C`, the TGI in the test on SR leukemia was 87.2 µM; with TK-10 renal it was greater than 100 µM; in the test with UO-31 renal, 93 µM; with SK-MEL-5 melanoma, 53.7 µM; with K-562 leukemia, greater than 100 µM; in the test on SK-OV-3 ovarian, greater than 100 µM. Moreover, the TGI in the test on HCT-15 colon stood at 80.9 µM.
Turning to `CC(=O)Nc1ccc(-c2nnc(SCC(=O)Nc3ccccc3[N+](=O)[O-])o2)cc1`, the TGI in the test with SR leukemia, in the test on TK-10 renal, in the test with UO-31 renal, in the test with SK-MEL-5 melanoma, with OVCAR-3 ovarian and in the test with K-562 leukemia was greater than 100 µM each time. The TGI in the test on SK-OV-3 ovarian and in the test with HCT-15 colon was greater than 100 µM throughout.
Regarding `C[C@@H]1CN(Cc2ccc(/C=C/c3n[nH]c4ccc5nc(-c6cn[nH]c6C(F)(F)F)c6c(c5c34)CCCC6)cc2)C[C@H](C)O1`, the GI50 is 4.92 µM in the test on TK-10 renal; 2.15 µM in the test with UO-31 renal; 12.2 µM in the test with SK-MEL-5 melanoma; 6.81 µM in the test on MDA-MB-435; 3.24 µM with MDA-MB-231 breast; 2.96 µM in the test with OVCAR-3 ovarian. Further, the GI50 is 2.81 µM in the test on K-562 leukemia, 3.64 µM in the test on SK-OV-3 ovarian and 1.76 µM in the test with HCT-15 colon. In addition, the TGI came to 17.7 µM in the test on TK-10 renal; 14 µM in the test with UO-31 renal; 24.7 µM in the test with SK-MEL-5 melanoma; 21.2 µM with MDA-MB-435; 15.5 µM with MDA-MB-231 breast; 14.6 µM in the test on OVCAR-3 ovarian. Besides, the TGI in the test with K-562 leukemia was 24.7 µM; in the test on SK-OV-3 ovarian, 17.3 µM; in the test with HCT-15 colon, 11.3 µM.
Turning to `CC1(C)CCc2cc3c(cc2O1)OC(C)(C)C1c2c(ccc4c2CCC(C)(C)O4)OC31` (configuration not stated), the TGI in the test with SR leukemia, with UO-31 renal, in the test on SK-MEL-5 melanoma, in the test with OVCAR-3 ovarian, with K-562 leukemia and with SK-OV-3 ovarian was greater than 100 µM in each case. The TGI with HCT-15 colon was greater than 100 µM.
With `COc1ccc(CNc2nc3ccccc3nc2-c2cccs2)cc1OC`, the TGI in the test with SR leukemia, in the test with TK-10 renal, with UO-31 renal, in the test with OVCAR-3 ovarian, in the test with K-562 leukemia and with HCT-15 colon was greater than 100 µM each time.
Regarding `O=C1OCC2=C1C(c1cccc(F)c1)c1cc3c(cc1N2CCO)OCCO3` (configuration not stated), the GI50 with SR leukemia was 0.078 µM; with TK-10 renal, 0.363 µM; in the test with UO-31 renal, 0.276 µM; with SK-MEL-5 melanoma, 0.162 µM; with MDA-MB-231 breast, 0.32 µM; in the test on OVCAR-3 ovarian, 0.142 µM. Besides, the figures for the GI50 in the test with K-562 leukemia, in the test with SK-OV-3 ovarian and in the test on HCT-15 colon were 0.122 µM, 0.26 µM and 0.193 µM, respectively. The TGI in the test on SR leukemia is greater than 50 µM; in the test with TK-10 renal, greater than 50 µM; in the test with UO-31 renal, greater than 50 µM; with MDA-MB-231 breast, greater than 20.3 µM; with K-562 leukemia, greater than 50 µM; in the test with SK-OV-3 ovarian, greater than 50 µM. Further, the TGI in the test on HCT-15 colon is greater than 50 µM.
For the compound `CC(=O)NNC(=O)c1nn(-c2ccc(Cl)cc2)cc1OC(C)=O`, the GI50 in the test on TK-10 renal is 15.6 µM; in the test on UO-31 renal it was 17.5 µM; with SK-MEL-5 melanoma, 10.4 µM; in the test with MDA-MB-435 it was 30.3 µM; in the test with MDA-MB-231 breast, 23.7 µM; in the test with OVCAR-3 ovarian it was 18.8 µM. For the same compound, the GI50 in the test with K-562 leukemia was 32.9 µM; in the test with SK-OV-3 ovarian, 49.5 µM; in the test with HCT-15 colon, 7.23 µM. Moreover, the TGI in the test with TK-10 renal is greater than 100 µM; in the test with UO-31 renal, greater than 86.8 µM; in the test on SK-MEL-5 melanoma, greater than 69.1 µM; with MDA-MB-435, greater than 100 µM; with MDA-MB-231 breast it was greater than 87.4 µM; with OVCAR-3 ovarian it was greater than 100 µM. Further, the TGI with K-562 leukemia, in the test on SK-OV-3 ovarian and in the test with HCT-15 colon was greater than 100 µM each time.
